According to patent US9540343B2 (Gilead Sciences, Inc., priority 2011, dated 2017):

How the values were obtained:
[1] = test system: HIV-IIIb; experiment: Test A: Antiviral assay in MT4 cells; format: cell-based, HIV-1; settings: MT-4 cells infected with HIV-IIIb, 5 days, CellTiter-Glo; for inhibition at 2 µM: Human immunodeficiency virus 1, IIIB, MT4, 120 h, read-out: % inhibition at 2 μM, percent inhibition of virus-induced cell killing, from dose response curve at 2 uM drug
[2] = in vitro; settings: human, uninfected MT-4 cells, CC50 (nM), same protocol as Test A, CellTiter-Glo
In short: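 Cytoprotection read-out: CellTiter-Glo chemiluminescence after 5 days at 37 °C of HIV-IIIb-infected MT-4 cells (m.o.i. 0.003) with compound in 10-point 3-fold dilutions, quadruplicate, 10% FBS. Cytotoxicity (CC50) measured identically without virus.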

Row | SMILES | inhibition at 2 µM [1] [%] | CC50 at 5 days [2] [nM] | % inhibition at 2 μM ([1]; percent inhibition of virus-induced cell killing, from dose response curve at 2 uM drug) [%]
1 | O=C(Cn1nc(C(F)F)c2c1C(F)(F)C1CC21)N[C@@H](Cc1cc(F)cc(F)c1)c1ncncc1-c1cnc2[nH]ccc2c1 (stereo partly drawn) [Example 172D, N—((S)-1-(5-(1H-pyrrolo[2,3-b]pyridin-5-yl)pyrimidin-4-yl)-2-(3,5-difluorophenyl)ethyl)-2-(3-(difluoromethyl)-5,5-difluoro-3b,4,4a,5-tetrahydro-1H-cyclopropa[3,4]cyclopenta[1,2-c]pyrazol-1-yl)acetamide] | 104 | 22100 | –
2 | NC(=O)c1cc(-c2cccnc2[C@H](Cc2cc(F)cc(F)c2)NC(=O)[C@@H]2CCCN2)ccc1F [Example 175, (S)—N—((S)-1-(3-(3-carbamoyl-4-fluorophenyl)pyridin-2-yl)-2-(3,5-difluorophenyl)ethyl)pyrrolidine-2-carboxamide] | 1 | > 53000 | –
3 | O=C(Cn1nc(C(F)F)c2c1C(F)(F)C1CC21)N[C@@H](Cc1cc(F)cc(F)c1)c1ncncc1-c1cnc2[nH]ncc2c1 (stereo partly drawn) [Example 176C, N—((S)-1-(5-(1H-pyrazolo[3,4-b]pyridin-5-yl)pyrimidin-4-yl)-2-(3,5-difluorophenyl)ethyl)-2-(3-(difluoromethyl)-5,5-difluoro-3b,4,4a,5-tetrahydro-1H-cyclopropa[3,4]cyclopenta[1,2-c]pyrazol-1-yl)acetamide] | 59 | 46500 | –
4 | NC(=O)c1cc(-c2cccnc2[C@H](Cc2cc(F)cc(F)c2)NC(=O)[C@@H]2C[C@H](c3ccccc3)CN2)ccc1F [Example 177, (2S,4R)—N—((S)-1-(3-(3-carbamoyl-4-fluorophenyl)pyridin-2-yl)-2-(3,5-difluorophenyl)ethyl)-4-phenylpyrrolidine-2-carboxamide] | 0 | 51700 | –
5 | NC(=O)c1cc(-c2cccnc2[C@H](Cc2cc(F)cc(F)c2)NC(=O)[C@@H]2C[C@@H](O)CN2)ccc1F [Example 178, (2S,4R)—N—((S)-1-(3-(3-carbamoyl-4-fluorophenyl)pyridin-2-yl)-2-(3,5-difluorophenyl)ethyl)-4-hydroxypyrrolidine-2-carboxamide] | 0 | > 53000 | –
6 | CCOc1nn(CC(=O)N[C@@H](Cc2cc(F)cc(F)c2)c2ncccc2-c2ccc(F)c(C(N)=O)c2)c2c1CCCC2 [Example 179C, (S)-5-(2-(2-(3,5-difluorophenyl)-1-(2-(3-ethoxy-4,5,6,7-tetrahydro-1H-indazol-1-yl)acetamido)ethyl)pyridin-3-yl)-2-fluorobenzamide] | 52 | 22300 | –
7 | NC(=O)c1cc(-c2cncnc2[C@H](Cc2cc(F)cc(F)c2)NC(=O)Cn2nc(C(F)F)c3c2C(F)(F)C2CC32)ccc1F (stereo partly drawn) [Example 180, 5-(4-((1S)-1-(2-(3-(difluoromethyl)-5,5-difluoro-3b,4,4a,5-tetrahydro-1H-cyclopropa[3,4]cyclopenta[1,2-c]pyrazol-1-yl)acetamido)-2-(3,5-difluorophenyl)ethyl)pyrimidin-5-yl)-2-fluorobenzamide] | 93 | > 50400 | –
8 | NC(=O)c1cc(-c2cccnc2[C@H](Cc2cc(F)cc(F)c2)NC(=O)[C@@H]2CC[C@H](c3ccccc3)N2)ccc1F [Example 182, (2S,5R)—N—((S)-1-(3-(3-carbamoyl-4-fluorophenyl)pyridin-2-yl)-2-(3,5-difluorophenyl)ethyl)-5-phenylpyrrolidine-2-carboxamide] | 8 | 51000 | –
9 | NC(=O)c1cc(-c2cccnc2[C@H](Cc2cc(F)cc(F)c2)NC(=O)[C@H]2CC[C@@H](c3ccccc3)N2)ccc1F [Example 183, (2R,5S)—N—((S)-1-(3-(3-carbamoyl-4-fluorophenyl)pyridin-2-yl)-2-(3,5-difluorophenyl)ethyl)-5-phenylpyrrolidine-2-carboxamide] | 0 | 35200 | –
10 | Cc1[nH]nc(-c2ccccc2)c1CC(=O)N[C@@H](Cc1cc(F)cc(F)c1)c1ncccc1-c1ccc(F)c(C(N)=O)c1 [Example 184, (S)-5-(2-(2-(3,5-difluorophenyl)-1-(2-(5-methyl-3-phenyl-1H-pyrazol-4-yl)acetamido)ethyl)pyridin-3-yl)-2-fluorobenzamide] | 5 | 43200 | –
11 | O=C(Cn1nc(C(F)F)c2c1C(F)(F)C1CC21)N[C@@H](Cc1cc(F)cc(F)c1)c1ncncc1-c1cccc2cnccc12 (stereo partly drawn) [Example 185C, 2-(3-(difluoromethyl)-5,5-difluoro-3b,4,4a,5-tetrahydro-1H-cyclopropa[3,4]cyclopenta[1,2-c]pyrazol-1-yl)-N—((S)-2-(3,5-difluorophenyl)-1-(5-(isoquinolin-5-yl)pyrimidin-4-yl)ethyl)acetamide] | 94 | 26500 | –
12 | NC(=O)c1cc(-c2cccnc2[C@H](Cc2cc(F)cc(F)c2)NC(=O)[C@H]2COCCN2)ccc1F [Example 188, (R)—N—((S)-1-(3-(3-carbamoyl-4-fluorophenyl)pyridin-2-yl)-2-(3,5-difluorophenyl)ethyl)morpholine-3-carboxamide] | 0 | > 53000 | –
13 | NC(=O)c1cc(-c2cccnc2[C@H](Cc2cc(F)cc(F)c2)NC(=O)Cn2nc(C(F)(F)F)c3c2CSC3)ccc1F [Example 189D, (S)-5-(2-(2-(3,5-difluorophenyl)-1-(2-(3-(trifluoromethyl)-4,6-dihydro-1H-thieno[3,4-c]pyrazol-1-yl)acetamido)ethyl)pyridin-3-yl)-2-fluorobenzamide] | 48 | 23300 | –
14 | NC(=O)c1cccc(-c2cccnc2[C@H](Cc2cc(F)cc(F)c2)NC(=O)CC2C(=O)Nc3ccccc32)c1 (stereo partly drawn) [Example 191, 3-(2-((1S)-2-(3,5-difluorophenyl)-1-(2-(2-oxoindolin-3-yl)acetamido)ethyl)pyridin-3-yl)benzamide] | – | > 50900 | 19
15 | Cc1ccc2c(c1)C(CC(=O)N[C@@H](Cc1cc(F)cc(F)c1)c1ncccc1-c1ccc(F)c(C(N)=O)c1)C(=O)N2 (stereo partly drawn) [Example 193, 5-(2-((1S)-2-(3,5-difluorophenyl)-1-(2-(5-methyl-2-oxoindolin-3-yl)acetamido)ethyl)pyridin-3-yl)-2-fluorobenzamide] | 2 | > 53200 | –
16 | NC(=O)c1cc(-c2cccnc2[C@H](Cc2cc(F)cc(F)c2)NC(=O)Cn2nc(C(F)(F)F)c3c2CS(=O)(=O)C3)ccc1F [Example 194, (S)-5-(2-(2-(3,5-difluorophenyl)-1-(2-(5,5-dioxido-3-(trifluoromethyl)-4,6-dihydro-1H-thieno[3,4-c]pyrazol-1-yl)acetamido)ethyl)pyridin-3-yl)-2-fluorobenzamide] | 11 | > 53200 | –
17 | COCc1ccc(-c2cccnc2[C@H](Cc2cc(F)cc(F)c2)NC(=O)Cn2nc(C(F)F)c3c2C(F)(F)C2CC32)cc1 (stereo partly drawn) [Example 195, 2-(3-(difluoromethyl)-5,5-difluoro-3b,4,4a,5-tetrahydro-1H-cyclopropa[3,4]cyclopenta[1,2-c]pyrazol-1-yl)-N—((S)-2-(3,5-difluorophenyl)-1-(3-(4-(methoxymethyl)phenyl)pyridin-2-yl)ethyl)acetamide] | 85 | 23000 | –
18 | NC(=O)c1cccc(-c2cccnc2[C@H](Cc2cc(F)cc(F)c2)NC(=O)CC2C(=O)Nc3ccc(F)cc32)c1 (stereo partly drawn) [Example 196, 3-(2-((1S)-2-(3,5-difluorophenyl)-1-(2-(5-fluoro-2-oxoindolin-3-yl)acetamido)ethyl)pyridin-3-yl)benzamide] | 2 | 29600 | –
19 | NC(=O)c1cc(-c2ccc[n+]([O-])c2[C@H](Cc2cc(F)cc(F)c2)NC(=O)Cn2nc(C(F)(F)F)c3c2CCS(=O)(=O)C3)ccc1F [Example 197, (S)-3-(3-carbamoyl-4-fluorophenyl)-2-(2-(3,5-difluorophenyl)-1-(2-(5,5-dioxido-3-(trifluoromethyl)-6,7-dihydrothiopyrano[4,3-c]pyrazol-1(4H)-yl)acetamido)ethyl)pyridine-1-oxide] | 0 | > 53200 | –
20 | NC(=O)c1cc(-c2cccnc2[C@H](Cc2cc(F)cc(F)c2)NC(=O)Cn2nc(C(F)F)c3c2CC2CC32)ccc1F (stereo partly drawn) [Example 198, 5-(2-((1S)-1-(2-(3-(difluoromethyl)-3b,4,4a,5-tetrahydro-1H-cyclopropa[3,4]cyclopenta[1,2-c]pyrazol-1-yl)acetamido)-2-(3,5-difluorophenyl)ethyl)pyridin-3-yl)-2-fluorobenzamide] | 112 | 45900 | –
21 | NC(=O)c1cc(-c2cccnc2[C@H](Cc2cc(F)cc(F)c2)NC(=O)Cn2nc(C(F)(F)F)c3c2CC2C3C2(F)F)ccc1F (stereo partly drawn) [Example 199E, 5-(2-((1S)-1-(2-(4,4-difluoro-3-(trifluoromethyl)-3b,4,4a,5-tetrahydro-1H-cyclopropa[3,4]cyclopenta[1,2-c]pyrazol-1-yl)acetamido)-2-(3,5-difluorophenyl)ethyl)pyridin-3-yl)-2-fluorobenzamide] | 18 | 9520 | –
22 | NC(=O)c1cc(-c2cccnc2[C@H](Cc2cc(F)cc(F)c2)NC(=O)Cn2nc3c(c2C(F)(F)F)CNC3)ccc1F [Example 200B, (S)-5-(2-(2-(3,5-difluorophenyl)-1-(2-(3-(trifluoromethyl)-5,6-dihydropyrrolo[3,4-c]pyrazol-2(4H)-yl)acetamido)ethyl)pyridin-3-yl)-2-fluorobenzamide] | 0 | > 53200 | –
23 | NC(=O)c1cc(-c2cccnc2[C@H](Cc2cc(F)cc(F)c2)NC(=O)Cc2cc(=O)[nH]c3ccccc23)ccc1F [Example 201, (S)-5-(2-(2-(3,5-difluorophenyl)-1-(2-(2-oxo-1,2-dihydroquinolin-4-yl)acetamido)ethyl)pyridin-3-yl)-2-fluorobenzamide] | 8 | > 53200 | –
